Measured values taken from patent publication US20070225253A1, “Use of a trioxopyrimidine for the treatment and prevention of bronchial inflammatory diseases” (priority 2004, published 2007).
In brackets after ≈: the same amount, converted by molar mass. Several values for one entry are separate records, joined by “and”; a condition that tells them apart may be missing. Identical values can stand only once. Like-named read-outs stand apart in the source and are kept apart here.

Legend:
[1] = Phase solubility study of Compound I with HP-β-CD and L-lysine; type: physicochemical; details: for solubility at 7 days: 25 °C, thermodynamic from solid
Experimental: Solubility studies were performed as described by Higuchi, T., and Connors, K. A., Advances in Analytical Chemistry and Instrumentation 4 (1965) 117-212. Excess amounts of Compound I were added to increasing concentrations of HP-β-CD (0-200 mM) in 5 ml dissolution media, either purified water or L-lysine solutions (50 mM or 500 mM). The glass containers were sealed and the suspensions were shaken in a water-bath at 25° C. until complexation equilibrium was reached (7 days). An aliquot was filtered through a 0.45 μm PVDF membrane filter and assayed for Compound I content by a validated liquid chromatography (LC) method.

[2] = Pharmacokinetics after intravenous administration to sheep; type: in vivo; details: I.V. solution, 5 mg/kg
Experimental: The Compound I/HP-β-CD intravenous solution was obtained by dissolving CompoundI (10 mg/ml) in a solution containing HP-β-CD (200 mM), L-lysine (20 mM) and water for injection. The osmolality (about 325 mOsmol/kg) and the pH (about 8.2) values of this solution are compatible with an intravenous injection. The solution was sterilized by passing through a sterile 0.20 μm cellulose acetate filter under aseptic conditions.
Six healthy sheep (2 males and 4 females) ranging from 45 to 82 kg of body weight were used as experimental animals. During the test, the animals were fed and watered ad libitum.
The experimental study, which was realized following the scheme of Table 3, included a randomized two-way cross-over design for oral administration followed by an intravenous administration. A wash-out period of 3 weeks was allowed between each administration.
For the intravenous dosage form, all six sheep received 5 mg of Compound I/kg of body weight. The solution was administered through the left jugular vein and blood samples were taken from the right jugular vein before and 5, 10, 15, 20, 30, 45 min, 1, 1.5, 2, 3, 4, 5, 6, 8, 10, 12, 24, 28, 32, 48, 72, 96, 120, 144, 168 h after starting the intravenous administration.
All blood samples were centrifuged and the serum were stored at −80° C. until assayed.
A fully automated method was developed for the LC determination of this compound in serum. Sample clean-up was performed by on-line coupling of a pre-column packed with restricted access material (RAM), namely LiChrospher RP-8ADS (alkyl diol silica), to the analytical column by means of the column-switching technique. The ADS sorbents belong to the group of internal surface reversed-phase supports and have been applied successfully for the clean-up of biological samples prior to LC analysis (Yu, Z., and Westerlund, D., Chromatographia 44 (1997) 589-594; Hubert, Ph., et al., S. T. P. Pharma Pratiques 9 (1999) 160-180; Souverain, S., et al., Journal of Chromatography B 801 (2004) 141-156). The operating conditions are described in a previous paper (Chiap, P., et al., Journal of Chromatography B 817 (2005), 109-117). The method was fully validated according to a novel approach based on accuracy profiles taking into account the total measurement error (Hubert, P., et al., Analytica Chimica Acta 391 (1999) 135-148; Hubert, Ph., et al., S. T. P. Pharma Pratiques 13 (2003) 27-64; Hubert, Ph., et al., J Pharm Biomed. Anal. 36 (2004) 579-586.
For the bioanalytical study, the dosing range of the method had to be increased until 50 μg/ml due to high concentrations to be determined. A partial revalidation was performed and good results were obtained with respect to response function, trueness, precision, accuracy and linearity.
For the intravenous administration study, the pharmacokinetic parameters were determined for each animal using a linear two-compartment model with first-order distribution and elimination (Boroujerdi, M., Pharmacokinetics, Principles and Applications. McGrow-Hill Companies, USA, 2002). The areas under the curve values (AUCs0-168) were calculated by linear trapezoidal rule during the sampling period. The AUC extrapolated until infinite values (AUCs0-∞), the total body clearance values (Clt), the biologic half-life (T1/2β) and the overall volume of distribution (Vdt) were calculated using conventional equations associated with compartmental analysis (Boroujerdi, M., Pharmacokinetics, Principles and Applications, McGrow-Hill Companies, USA, 2002).

Human MMP-2 = biological target: T1, Human MMP-2 (Homo sapiens, UniProt P08253); assay: MMP enzymatic activity, modified fluorescence assay (DNP-substrate); type: biochemical
T1 sequence (P08253 110-660): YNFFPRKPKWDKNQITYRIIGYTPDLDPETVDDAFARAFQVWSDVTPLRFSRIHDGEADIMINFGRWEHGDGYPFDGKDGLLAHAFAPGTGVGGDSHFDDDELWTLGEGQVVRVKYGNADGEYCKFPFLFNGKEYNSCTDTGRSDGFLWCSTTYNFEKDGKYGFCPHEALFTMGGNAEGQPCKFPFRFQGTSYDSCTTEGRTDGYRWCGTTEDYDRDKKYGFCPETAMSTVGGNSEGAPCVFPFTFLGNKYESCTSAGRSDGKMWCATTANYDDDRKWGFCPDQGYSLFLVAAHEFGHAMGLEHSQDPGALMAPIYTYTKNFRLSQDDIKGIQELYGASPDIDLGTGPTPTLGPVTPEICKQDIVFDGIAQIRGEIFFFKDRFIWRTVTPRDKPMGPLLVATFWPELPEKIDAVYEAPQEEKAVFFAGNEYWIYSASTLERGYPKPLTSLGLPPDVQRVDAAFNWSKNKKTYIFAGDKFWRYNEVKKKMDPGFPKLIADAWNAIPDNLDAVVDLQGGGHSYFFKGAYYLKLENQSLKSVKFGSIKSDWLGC
Experimental: IC50 values are measured by an in vitro assay for MMP enzymatic activity. […] This assay is based on the determination of MMP enzymatic activity on a dinitrophenol substrate and fluorescence measurement of the substrate after cleaving by MMPs.
Human MMP-1, MMP-2, MMP-3, MMP-9 and MMP-14 are commercially available (e.g. Calbiochem). The pro-enzymes were activated with 1 mM APMA (incubation for 30 min at 37° C.) immediately before testing. Activated enzyme is diluted to 100 ng/ml in incubation buffer (50 mM Tris, 100 mM NaCl, 10 mM CaCl2, pH 7.6). The compounds were dissolved in 100% DMSO.
The test tube contains 970 μl incubation buffer, 10 μl inhibitor solution and 10 μl enzyme solution. The reaction was started by adding the 10 μl substrate solution.

O=C1NC(=O)C(c2ccc(-c3ccccc3)cc2)(N2CCN(c3ccc([N+](=O)[O-])cc3)CC2)C(=O)N1 [Compound I, 5-Biphenyl-4-yl-5-[4-(4-nitro-phenyl)-piperazin-1-yl]pyrimidine-2,4,6-trione]
solubility at 7 days ([1]; 50 mM L-lysine solution with 200 mM HP-β-CD, aqueous with cosolvent or surfactant or cyclodextrin, L-lysine 50 mM, 25° C., read-out: Solubility with HP-β-CD (200 mM)): 17100 µg/mL (≈ 35.2 mM) | solubility at 7 days ([1]; 50 mM L-lysine solution, no cyclodextrin, aqueous buffer, L-lysine 50 mM, 25° C., read-out: Solubility without CD): 50 µg/mL (≈ 0.103 mM) | solubility at 7 days ([1]; 200 mM HP-β-CD in purified water, aqueous with cosolvent or surfactant or cyclodextrin, purified water, 25° C., read-out: Solubility with HP-β-CD (200 mM)): 5530 µg/mL (≈ 11.4 mM) | solubility at 7 days ([1]; 200 mM HP-β-CD in purified water, no L-lysine, aqueous with cosolvent or surfactant or cyclodextrin, solubility in a 200 mM HP-β-CD solution, absence of L-lysine): ~5500 µg/mL and ~11000 µM | increase of aqueous solubility ([1]; 200 mM HP-β-CD, no L-lysine, vs purified water): approximately 10,000 fold | solubility at 7 days ([1]; 500 mM L-lysine solution with 200 mM HP-β-CD, aqueous with cosolvent or surfactant or cyclodextrin, 500 mM L-lysine and 200 mM HP-β-CD, read-out: solubility): 38100 µg/mL (≈ 78.6 mM) | solubility at 7 days ([1]; 500 mM L-lysine solution with 200 mM HP-β-CD, aqueous with cosolvent or surfactant or cyclodextrin, L-lysine 500 mM, 25° C., read-out: Solubility with HP-β-CD (200 mM)): 38100 µg/mL (≈ 78.6 mM) | solubility at 7 days ([1]; 500 mM L-lysine solution, no cyclodextrin, aqueous buffer, L-lysine 500 mM, 25° C., read-out: Solubility without CD): 90 µg/mL (≈ 0.185 mM) | solubility at 7 days ([1]; 500 mM L-lysine solution, no cyclodextrin, aqueous buffer, L-lysine (500 mM) separately, no CD, read-out: solubility): 90 µg/mL (≈ 0.185 mM) | increase of aqueous solubility ([1]; 500 mM of L-lysine and 200 mM of HP-β-CD): 70,000 fold | solubility at 7 days ([1]; purified water, no cyclodextrin, water, purified water, 25° C., read-out: Solubility without CD): 0.56 µg/mL (≈ 0.00115 mM) | distribution phase ([2]; sheep): about 30 minutes | AUC(0-inf) ([2]; both sexes, serum, iv, sheep n = 6, mean ± S.D.): 859 ± 212 µg·h/mL | AUC(0-t) ([2]; both sexes, serum, iv, sheep n = 6, mean ± S.D., read-out: AUC0-168 h): 858 ± 212 µg·h/mL | clearance ([2]; both sexes, sheep, serum, iv, sheep n = 6, mean ± S.D., read-out: Clt (total body clearance) (converted)): ~5.97 mL/min | half-life ([2]; both sexes, sheep, serum, iv, sheep n = 6, mean ± S.D., read-out: T1/2β (biologic half-life) (converted)): ~15.5 h | Vd ([2]; both sexes, sheep, serum, iv, sheep n = 6, mean ± S.D., read-out: Vdt (overall volume of distribution)): ~8 L | IC50 (Human MMP-2): 65 nM
